Test results: patent publication US20030018061A1, “Novel remedies with the use of beta 3 agonist” (priority 2000, published 2003)

Legend:
[1] = test system: human urinary bladder compression muscle; assay: Relaxation of carbachol-contracted human urinary bladder compression muscle; assay type: cell-based; details: for relaxation of bladder compression muscle, combination with propiverine: 10^−6 M propiverine plus compound (a, b, f, g 10^−9 M; c, d 10^−10 M; e, h, i 10^−8 M); for relaxation of bladder compression muscle, combination with propiverine / relaxation of bladder compression muscle, combination with oxybutynin / relaxation of bladder compression muscle, combination with tolterodine: in comparison with each compound alone; for relaxation of bladder compression muscle, combination with oxybutynin: 10^−9 M oxybutynin plus compound (a, b, f, g 10^−9 M; c 10^−10 M; e, h, i 10^−8 M); for relaxation of bladder compression muscle, combination with tolterodine: 10^−9 M tolterodine plus compound (a, b, f, g 10^−9 M; d 10^−10 M; e, h, i 10^−8 M); for concentration at which the bladder compression muscle was significantly relaxed / concentration at which the muscle was not relaxed significantly: contraction provoked by carbachol (0.5×10^−6 M), each compound alone
[2] = test system: Genetically diabetic mice; assay: Antidiabetic effect (III): genetically diabetic mice, rosiglitazone and β3 agonist; assay type: in vivo; details: oral, 2 weeks; ROS 1 mg/kg; compound c, d 0.3 mg/kg; e, g 3 mg/kg; h, i 1 mg/kg; alone or combined
Experimental: Genetically diabetic mice were orally administered with rosiglitazone (ROS: 1 mg/kg), a β3 agonist (compound c: 0.3 mg/kg; compound d: 0.3 mg/kg; compound e: 3 mg/kg; compound g: 3 mg/kg; compound h: 1 mg/kg; compound i: 1 mg/kg), or ROS and a β3 agonist (compound c, compound d, compound e, compound g, compound h, and compound i) in combination (each dosage was the same as the aforementioned) for 2 weeks. Blood was collected thereafter, and the amount of glucose contained in blood plasma was measured.

[3] = test system: Mice induced with obesity by feeding with a high fat diet; assay: Antiobestic effect (I): body weight of high fat diet obese mice, sibutramine and β3 agonist; assay type: in vivo; details: oral, 2 weeks; SIB 1 mg/kg; compound c, d 0.3 mg/kg; e, g 3 mg/kg; h, i 1 mg/kg; alone or combined at same doses
Experimental: Mice induced with obesity by feeding with a high fat diet for 2 months were orally administered with sibutramine (SIB: 1 mg/kg), a β3 agonist (compound c: 0.3 mg/kg; compound d: 0.3 mg/kg; compound e: 3 mg/kg; compound g: 3 mg/kg; compound h: 1 mg/kg; compound i: 1 mg/kg), or SIB and a β3 agonist (compound c, compound d, compound e, compound g, compound h, and compound i) in combination (each dosage was the same as the aforementioned) for 2 weeks and bred, and body weight was measured.

[4] = test system: Mice induced with obesity by feeding with a high fat diet; assay: Antiobestic effect (II): body weight of high fat diet obese mice, orlistat and β3 agonist; assay type: in vivo; details: oral, 2 weeks; orlistat 1 mg/kg; compound c, d 0.3 mg/kg; e, g 3 mg/kg; h, i 1 mg/kg; alone or combined at same doses
Experimental: Mice induced with obesity by feeding with a high fat diet for 2 months were orally administered with orlistat (1 mg/kg), a β3 agonist (compound c: 0.3 mg/kg; compound d: 0.3 mg/kg; compound e: 3 mg/kg; compound g: 3 mg/kg; compound h: 1 mg/kg; compound i: 1 mg/kg), or orlistat and a β3 agonist (compound c, compound d, compound e, compound g, compound h, and compound i) in combination (each dosage was the same as the aforementioned) for 2 weeks and bred, and body weight was measured.

[5] = test system: Mice; assay: Antilipemic effect (II): plasma triglyceride in mice, bezafibrate and β3 agonist; assay type: in vivo; details: oral, 2 weeks; administered solely: BEZ 3 mg/kg; compound c, d 0.3 mg/kg; e, g 3 mg/kg; h, i 1 mg/kg
[6] = test system: Mice fasted overnight, glucose loaded; assay: Antidiabetic effect (II): plasma glucose after glucose loading in fasted mice, glibenclamide and β3 agonist; assay type: in vivo; details: 1 hour after glucose load (1 g/kg s.c.), oral GLI 10 mg/kg, compound a 10 mg/kg, d 0.3 mg/kg, e, g 3 mg/kg, i 1 mg/kg, vs glucose loading only
Experimental: Mice fasted overnight were orally administered with glibenclamide (GLI: 10 mg/kg), a β3 agonist (compound a: 10 mg/kg; compound c: 0.3 mg/kg; compound d: 0.3 mg/kg; compound e: 3 mg/kg; compound g: 3 mg/kg; compound h: 1 mg/kg; compound i: 1 mg/kg), or GLI and a β3 agonist (compound a, compound c, compound d, compound e, compound g, compound h, and compound i) in combination (each dosage was the same as the aforementioned), and immediately glucose (1 g/kg, subcutaneous injection) was loaded. Blood was collected after 1 hour, and the amount of glucose contained in blood plasma was measured.
In this combined use, hypoglycemia, which is a side effect of glibenclamide, was not observed.

[7] = test system: Genetically diabetic mice; assay: Antidiabetic effect (IV): genetically diabetic mice, acarbose and β3 agonist; assay type: in vivo; details: oral, 2 weeks; ACA 1 mg/kg; compound c, d 0.3 mg/kg; e, g 3 mg/kg; h, i 1 mg/kg; alone or combined
[8] = test system: Mice; assay: Antidiabetic effect: plasma glucose in mice, insulin and β3 agonist; assay type: in vivo; details: 30 min after dosing; INS 0.2 U/kg intraperitoneal; oral compound a 10 mg/kg; c, d 0.3 mg/kg; e, g 3 mg/kg; h, i 1 mg/kg; alone or combined
Experimental: Mice were administered with insulin (INS: 0.2 U/kg, intraperitoneal injection), a β3 agonist (oral administration of compound a: 10 mg/kg; compound c: 0.3 mg/kg; compound d: 0.3 mg/kg; compound e: 3 mg/kg; compound g: 3 mg/kg; compound h: 1 mg/kg; compound i: 1 mg/kg, respectively), or INS and a β3 agonist (compound a, compound c, compound d, compound e, compound g, compound h, and compound i) in combination (each dosage and administration route was the same as the aforementioned), blood was collected after 30 min, and the amount of glucose contained in blood plasma was measured.

With CN(C)S(=O)(=O)Nc1cc([C@@H](O)CNCCOc2ccc3c(c2)[nH]c2ccccc23)ccc1O [compound f, (R)-N′-[5-[2-[2-(9H-carbazole-2-iloxy)ethylamino]-1-hydroxyethyl]-2-hydroxyphenyl]-N,N-dimethyl sulfonyl amide] the “relaxation of bladder compression muscle, combination with propiverine” value (“relaxation … with propiverine” for short) [1] was “relaxed significantly”, the “relaxation of bladder compression muscle, combination with oxybutynin” value (from here on “relaxation … with oxybutynin”) [1] was “relaxed significantly” and the “relaxation of bladder compression muscle, combination with tolterodine” value (“relaxation … with tolterodine” for short) [1] was “relaxed significantly”. For the same compound, the “concentration at which the bladder compression muscle was significantly relaxed” value [1] was 10^−7 M and the “concentration at which the muscle was not relaxed significantly” value [1] was 10^−9 M.
With CS(=O)(=O)Nc1cc([C@@H](O)CNCCOc2ccc3c(c2)[nH]c2ccccc23)ccc1Br [compound i, (R)-N-[5-[2-[2-(9H-carbazole-2-iloxy)ethylamino]-1-hydroxyethyl]-2-bromophenyl]methanesulfonamide] the “blood glucose level (glucose in blood plasma)” value (from here on “blood glucose level”) [2] was “no difference in the blood glucose level”, the body weight [3] was “almost no change in body weight” and the body weight [4] was “almost no change in body weight”. For the same compound, the plasma triglyceride level [5] was “no difference”, the “relaxation … with propiverine” value [1] was “relaxed significantly” and the “relaxation … with oxybutynin” value [1] was “relaxed significantly”. The “relaxation … with tolterodine” value [1] was “relaxed significantly”, the “concentration at which the bladder compression muscle was significantly relaxed” value [1] was 10^−6 M and the “concentration at which the muscle was not relaxed significantly” value [1] was 10^−8 M. The “blood glucose level” value [6] was “almost no difference in the blood glucose level”, the “blood glucose level” value [7] was “no difference” and the “blood glucose level” value [8] was “no change in blood glucose level”.
CN(C)S(=O)(=O)Nc1cc([C@@H](O)CNCCOc2ccc3c(c2)oc2ccccc23)ccc1O [compound g, (R)-N′-[5-[2-[2-(dibenzofuran-3-iloxy)ethylamino]-1-hydroxyethyl]-2-hydroxyphenyl]-N,N-dimethyl sulfonyl amide] was tested, and the “blood glucose level” value [2] was “no difference in the blood glucose level”, the body weight [3] was “almost no change in body weight” and the body weight [4] was “almost no change in body weight”. The plasma triglyceride level [5] was “no difference”, the “relaxation … with propiverine” value [1] was “relaxed significantly” and the “relaxation … with oxybutynin” value [1] was “relaxed significantly”. The “relaxation … with tolterodine” value [1] was “relaxed significantly”, the “concentration at which the bladder compression muscle was significantly relaxed” value [1] was 10^−7 M and the “concentration at which the muscle was not relaxed significantly” value [1] was 10^−9 M. For the same compound, the “blood glucose level” value [6] was “almost no difference in the blood glucose level”, the “blood glucose level” value [7] was “no difference” and the “blood glucose level” value [8] was “no change in blood glucose level”.
With CCCCCCCCCCC[C@@H](C[C@@H]1OC(=O)[C@H]1CCCCCC)OC(=O)[C@H](CC(C)C)NC=O [orlistat, reference compound] the body weight [4] was “almost no change in body weight”.
In the case of CC(C)CC(N(C)C)C1(c2ccc(Cl)cc2)CCC1 (stereo not drawn) [SIB, sibutramine, reference compound], the body weight [3] is reported as “almost no change in body weight”.
CS(=O)(=O)Nc1cccc([C@@H](O)CNCCOc2ccc3c(c2)[nH]c2cc(O)ccc23)c1 [compound a, (R)-N-[3-[2-[2-(7-hydroxy-9H-carbazole-2-iloxy)ethylamino]-1-hydroxyethyl]phenyl]methanesulfonamide] was tested, and the “relaxation … with propiverine” value [1] was “relaxed significantly”, the “relaxation … with oxybutynin” value [1] was “relaxed significantly” and the “relaxation … with tolterodine” value [1] was “relaxed significantly”. For the same compound, the “concentration at which the bladder compression muscle was significantly relaxed” value [1] was 10^−7 M, the “concentration at which the muscle was not relaxed significantly” value [1] was 10^−9 M and the “blood glucose level” value [6] was “almost no difference in the blood glucose level”. For the same compound, the “blood glucose level” value [8] was “no change in blood glucose level”.
In the case of CS(=O)(=O)Nc1cc([C@@H](O)CNCCOc2ccc3c4c([nH]c3c2)CCCC4)ccc1O [compound b, (R)-N-[5-[2-[2-(5,6,7,8-tetrahydro-9H-carbazole-2-iloxy)ethylamino]-1-hydroxyethyl]-2-hydroxyphenyl]methanesulfonamide], the “relaxation … with propiverine” value [1] is reported as “relaxed significantly”, the “relaxation … with oxybutynin” value [1] is reported as “relaxed significantly” and the “relaxation … with tolterodine” value [1] is reported as “relaxed significantly”. The “concentration at which the bladder compression muscle was significantly relaxed” value [1] was 10^−7 M and the “concentration at which the muscle was not relaxed significantly” value [1] was 10^−9 M.
CS(=O)(=O)Nc1cccc([C@@H](O)CNCCOc2ccc3c(c2)[nH]c2ccccc23)c1 [compound e, (R)-N-[3-[2-[2-(9H-carbazole-2-iloxy)ethylamino]-1-hydroxyethyl]phenyl]methanesulfonamide] was tested, and the “blood glucose level” value [2] was “no difference in the blood glucose level”, the body weight [3] was “almost no change in body weight” and the body weight [4] was “almost no change in body weight”. For the same compound, the plasma triglyceride level [5] was “no difference”, the “relaxation … with propiverine” value [1] was “relaxed significantly” and the “relaxation … with oxybutynin” value [1] was “relaxed significantly”. The “relaxation … with tolterodine” value [1] was “relaxed significantly”, the “concentration at which the bladder compression muscle was significantly relaxed” value [1] was 10^−6 M and the “concentration at which the muscle was not relaxed significantly” value [1] was 10^−8 M. The “blood glucose level” value [6] was “almost no difference in the blood glucose level”, the “blood glucose level” value [7] was “no difference” and the “blood glucose level” value [8] was “no change in blood glucose level”.
With COc1ccc(Cl)cc1C(=O)NCCc1ccc(S(=O)(=O)NC(=O)NC2CCCCC2)cc1 [GLI, glibenclamide, reference compound] the “blood glucose level” value [6] was “almost no difference in the blood glucose level”.
With insulin [reference compound] the “blood glucose level” value [8] was “no change in blood glucose level”.
